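Assay format: 96-well plates, 48-hour exposure. The concentration for 50% growth inhibition is given as GI50.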 Calls of active or inactive are those of the source. Rule as the data show it: active = GI50 up to about 1.1 µM and inactive = higher.
Experiments:
Assay in all cases: DTP human tumour cell line panel, 48 h
[1] = test system: HOP-18
[2] = test system: LXFL 529
[3] = test system: KM-20L2
[4] = test system: DLD-1
[5] = test system: SNB-78
[6] = test system: RXF 631
[7] = test system: XF498
[8] = test system: M19-MEL
[9] = test system: DMS-273

Compound	GI50 [1]	GI50 [2]	GI50 [3]	GI50 [4]	GI50 [5]	GI50 [6]	GI50 [7]	GI50 [8]	GI50 [9]
CN(C)CCSc1cccc(-c2cc(-c3cccc(SCCN(C)C)c3)nc(SCCN(C)C)n2)c1	< 0.01 µM (active)	2.02 µM (inactive)	1.71 µM (inactive)	12.9 µM (inactive)	2.42 µM (inactive)				
CCOc1ccc(/C(C=O)=C(\Cl)c2ccc(OC)c(OC)c2)cc1	> 100 µM (inactive)	> 100 µM (inactive)	> 100 µM (inactive)	> 100 µM (inactive)	> 100 µM (inactive)	> 100 µM (inactive)	45.2 µM (inactive)	> 100 µM (inactive)	> 100 µM (inactive)
COc1cc(/C=C/C(=O)Oc2ccc(NC(C)=O)cc2)ccc1C(=O)O/C=C/c1ccccc1	> 100 µM (inactive)		> 100 µM (inactive)	> 100 µM (inactive)	> 100 µM (inactive)		> 100 µM (inactive)	> 100 µM (inactive)	> 100 µM (inactive)
Cc1cc(N(CCC#N)S(=O)(=O)c2ccccc2)ccc1/C=N/c1ccc(C(=O)O)cc1	3.24 µM (inactive)	1.76 µM (inactive)	9.82 µM (inactive)	1.99 µM (inactive)	12.3 µM (inactive)		8.71 µM (inactive)	2.75 µM (inactive)	6.61 µM (inactive)
Cc1nc([N+](=O)[O-])cn1CC(=N)N		> 100 µM (inactive)	> 100 µM (inactive)	> 100 µM (inactive)		> 100 µM (inactive)		> 100 µM (inactive)	> 100 µM (inactive)
Cc1cc(N(CCC#N)CCC#N)ccc1/N=N/c1ccc(S(N)(=O)=O)cc1	51.1 µM (inactive)	> 100 µM (inactive)		> 100 µM (inactive)	> 100 µM (inactive)	> 100 µM (inactive)	0.0413 µM (active)		> 100 µM (inactive)
CCCCCCCCCCCCCCCCCC(=O)OCC(CN(C)CCN(C)C)OC(=O)CCCCCCCCCCCCCCCCC (centres undefined)	20.6 µM (inactive)	72.4 µM (inactive)	> 100 µM (inactive)	89.7 µM (inactive)	> 100 µM (inactive)	55.5 µM (inactive)			> 100 µM (inactive)
CC(=O)N1[C@H](C(=O)O)CS[C@H]1c1ccncc1	> 100 µM (inactive)	> 100 µM (inactive)	> 100 µM (inactive)	> 100 µM (inactive)	> 100 µM (inactive)			> 100 µM (inactive)	
Cc1ccc(S(=O)(=O)OCOS(=O)(=O)c2ccc(C)cc2)cc1	> 100 µM (inactive)	> 100 µM (inactive)	> 100 µM (inactive)	> 100 µM (inactive)	> 10 µM (inactive)			> 100 µM (inactive)	> 100 µM (inactive)
CCCCCC(C[N+]1(C)CCOCC1)C(=O)/C=C/c1ccccc1 (centres undefined)	14.8 µM (inactive)	3.18 µM (inactive)	15.9 µM (inactive)	6.25 µM (inactive)	14.1 µM (inactive)		14.4 µM (inactive)	14.6 µM (inactive)	2.91 µM (inactive)
CCOC(=O)C1=C(NC)OC/C1=N\NC(=O)c1ccccc1O	14.8 µM (inactive)	39.8 µM (inactive)	39.7 µM (inactive)	17.6 µM (inactive)	96.6 µM (inactive)		56.4 µM (inactive)	29.9 µM (inactive)	23.1 µM (inactive)
COc1ccc(OC(=O)CC2Cc3cc(OC)c(OC)c(OC)c3-c3ccc(SC)c(=O)cc32)cc1 (centres undefined)		0.217 µM (active)	0.169 µM (active)	0.344 µM (active)		0.281 µM (active)	0.258 µM (active)	5.74 µM (inactive)	0.102 µM (active)
O=C1Sc2sc(=S)sc2SC1c1ccccc1 (centres undefined)	48.1 µM (inactive)		> 63.5 µM (inactive)	32.2 µM (inactive)	31.9 µM (inactive)		45.2 µM (inactive)	60.4 µM (inactive)	> 100 µM (inactive)
CCOC(=O)N1CCc2cc(OC)c(OC)cc2/C1=C/c1ccc(OC)c(OC)c1	> 100 µM (inactive)	34.6 µM (inactive)	38.3 µM (inactive)	48.6 µM (inactive)	38 µM (inactive)		30 µM (inactive)	45.9 µM (inactive)	49.2 µM (inactive)
O=P1(NCCCl)OCCC(OO)N1CCCl (centres undefined)	39.9 µM (inactive)		> 100 µM (inactive)	21.2 µM (inactive)	34.2 µM (inactive)			34.8 µM (inactive)	47.3 µM (inactive)
CSC(SC)=C1Sc2cccc(Cl)c2S1	> 100 µM (inactive)	69.8 µM (inactive)	36.9 µM (inactive)	45.2 µM (inactive)	> 100 µM (inactive)		29.9 µM (inactive)	43.5 µM (inactive)	46.2 µM (inactive)
